Consider one compound from ChEMBL document CHEMBL1152340, “Flavonoid glucuronides and a chromone from the aquatic macrophyte Stratiotes aloides” (2009).

For assay [1], the system named is SH-SY5Y. Nature of the assay: Cytotoxicity against human SH-SY5Y cells at 10 uM after 4 days by DAPI staining method. In kind it is functional.
For assay [2], the system named is SH-SY5Y. Nature of the assay: Cytotoxicity against human SH-SY5Y cells at 50 uM after 4 days by DAPI staining method. In kind it is functional.
A short description of assay [3]: Cytotoxicity against human PA-TU-8902 cells at 50 uM after 4 days by DAPI staining method relative to control. In kind it is functional.
The subject of assay [4] is SH-SY5Y. Nature of the assay: Cytotoxicity against human SH-SY5Y cells after 4 days by DAPI staining method. In kind it is functional, cell-based.
In assay [5] the test system is SH-SY5Y. Nature of the assay: Induction of apoptosis in human SH-SY5Y cells assessed as DNA fragmentation at 50 uM after 4 days by Hoechst 33342 method. In kind it is functional, cell-based.

Calls of active or inactive are those of the source. The calls are words filed in the database; no cut-off is given here.

On to `O=C(O)[C@H]1O[C@@H](O[C@H]2[C@H](Oc3cc(O)c4c(=O)cc(-c5ccc(O)c(O)c5)oc4c3)O[C@H](CO)[C@@H](O)[C@@H]2O)[C@H](O)[C@@H](O)[C@@H]1O`, for which the Activity in assay [1] was 75%; in assay [2], 75%; in assay [3], 20%; in assay [4] it was “Dose-dependent effect”. In assay [5], the outcome was Active.
